Counter-ions that a name gives are not always drawn. Blank lines part the entries; values can stand above or below the compound they belong to.
Legend:
[1] = target: assembly of Lp(a) from Apo(a) and the LDL particle (Homo sapiens, UniProt P08519); assay: In vitro Lp(a) assembly assay (cell-free, HepG2 and HEK293 conditioned media, sandwich ELISA); type: biochemical; conditions: inhibition of Lp(a) formation, 37° C. for 2 hrs; geometric mean ± SEM (n)
Method: The ability of compounds to inhibit the formation of Lp(a) particles in vitro is assessed by a cell-free assembly assay. Conditioned media (DMEM supplemented with 10% FBS, 20 mM HEPES, and 1× penicillin/streptomycin) is collected from confluent wild-type HepG2 cells (a source of endogenously expressed ApoB) and from a HEK293 stable cell line expressing human Apo(a) protein containing 17 Kringle repeats (selected on 1 mg/ml geneticin) after 24 hours of culture at 37° C. and 5% CO2. An in vitro assembly assay is conducted by combining equal parts of HepG2 and HEK293 conditioned media with the test compounds added in dilution series (final concentration 0.01˜100 nM). The reaction is incubated at 37° C. for 2 hrs and then stopped with the addition of 6-aminocaproic acid (EACA) to a final concentration of 150 mM. Lp(a) is detected using a sandwich ELISA with an anti-Lp(a) capture antibody and an HRP-conjugated anti-ApoB detection antibody. The ELISA is developed using TMB, stopped using 1 N sulfuric acid, and the signal is read at 450 nm on a Molecular Devices plate reader.

human Apo(a) protein = human Apo(a) protein (Homo sapiens, UniProt P08519); assay: In vitro Apo(a) binding assay (competitive SPA radioligand binding); conditions: human Apo(a) with 17 Kringle repeats; geometric mean ± SEM (n)
Method: The in vitro binding affinity of compounds to the intended target human Apo(a) protein is tested in a competitive binding assay. Human Apo(a) protein containing 17 Kringle repeats is affinity purified from conditioned media of transiently transfected HEK-293F cells. All reagents are prepared in assay buffer containing 50 mM Tris-HCl pH 7.4, 0.1% BSA. The binding assay is conducted by adding to each well of a clear-bottom plate […] of (1) test compound in dilution series (final concentration […]), (2) Apo(a) protein (6 ng/well), (3) re-suspended Wheat Germ Agglutinin Polyvinyltoluene SPA beads (20 mg/ml), and (4) the radioligand, tritium-labeled (2S)-3-[3-[2-oxo-3-[3-(tritritiomethoxy)phenyl]imidazolidin-1-yl]phenyl]-2-[(3R)-pyrrolidin-3-yl]propanoic acid; hydrochloride (final concentration 0.52 nM). Plates are incubated for 60 minutes at RT and counted on TRILUX LSC. […] Data are analyzed by fitting to a standard single site binding model and the IC50 for the Example test compound is determined. […] Inhibition of the assembly of the LDL particle with apo(a) through binding to the Apo(a) protein supports a reduction in Lp(a) levels.

plasma Lp(a) = assay: In vivo Lp(a) inhibition in mice; conditions: for Lp(a) inhibition (% at 30 mpk): 30 mpk oral twice a day; for Lp(a) inhibition (% at 30 mpk) / ED50: day 3 at 8 h post morning oral dose; for Lp(a) inhibition (% at 30 mpk) / Lp(a) inhibition (%): mean ± SEM; for ED50: effective dose for 50% Lp(a) inhibition, oral, twice a day, ED50 ± standard error
Method: The ability of compounds to reduce steady-state Lp(a) level in vivo is assessed in a transgenic mouse model capable of producing humanized Lp(a) particles. In vivo effects of Lp(a) disruptor compounds are tested in 7 to 17-month-old female double transgenic mice expressing human apoB-100 and human apo(a) containing 17 Kringle repeats: B6.SJL-Tg(APOB)1102Sgy Tg(Alb-LPA)32Arte. Mice are housed with standard light cycle (12 hrs. light/12 hrs. dark), at RT 72±8° F. and relative humidity of 30˜70%, and with free access to water and normal chow diet (Harlan Tecklad diet 2014). Mice are randomized to treatment groups (n=5/group) 3 to 5 days before the study by body weight and baseline plasma Lp(a) concentration using BRAT (Block Randomized Allocation Tool) for the study. Mice are orally dosed (or subcutaneously where noted) with vehicle (oral dose vehicle: 10 mL/kg, 1% HEC, 0.25% Tween80, 0.01% Antifoam; subcutaneous dose vehicle: 5 mL/kg saline) or test compound at various dose levels twice a day (6:30 am and […]) for 5 days. Blood is collected in heparin-coated capillary tubes via tail bleed. Twenty μL of each blood sample is transferred to a DBS card (Whatman Cat #: WB12 9243) for drug exposure analysis. The remaining blood samples are centrifuged to separate plasma. Lp(a) concentration in plasma is measured using a sandwich ELISA as described for the in vitro Lp(a) assembly assay. The % inhibition for each dose group is determined with the mean the Lp(a) level of the vehicle control group set to 0% inhibition. […] ED50 (effective dose for 50% Lp(a) inhibition) calculations as determined by Threshold Minimum Effective Dose analysis.

[2] = 30 mg/kg oral twice a day, day 3 at 4 h post morning dose

Chain of assembly of Lp(a) from Apo(a) and the LDL particle (P08519 20-2040 limits assumed): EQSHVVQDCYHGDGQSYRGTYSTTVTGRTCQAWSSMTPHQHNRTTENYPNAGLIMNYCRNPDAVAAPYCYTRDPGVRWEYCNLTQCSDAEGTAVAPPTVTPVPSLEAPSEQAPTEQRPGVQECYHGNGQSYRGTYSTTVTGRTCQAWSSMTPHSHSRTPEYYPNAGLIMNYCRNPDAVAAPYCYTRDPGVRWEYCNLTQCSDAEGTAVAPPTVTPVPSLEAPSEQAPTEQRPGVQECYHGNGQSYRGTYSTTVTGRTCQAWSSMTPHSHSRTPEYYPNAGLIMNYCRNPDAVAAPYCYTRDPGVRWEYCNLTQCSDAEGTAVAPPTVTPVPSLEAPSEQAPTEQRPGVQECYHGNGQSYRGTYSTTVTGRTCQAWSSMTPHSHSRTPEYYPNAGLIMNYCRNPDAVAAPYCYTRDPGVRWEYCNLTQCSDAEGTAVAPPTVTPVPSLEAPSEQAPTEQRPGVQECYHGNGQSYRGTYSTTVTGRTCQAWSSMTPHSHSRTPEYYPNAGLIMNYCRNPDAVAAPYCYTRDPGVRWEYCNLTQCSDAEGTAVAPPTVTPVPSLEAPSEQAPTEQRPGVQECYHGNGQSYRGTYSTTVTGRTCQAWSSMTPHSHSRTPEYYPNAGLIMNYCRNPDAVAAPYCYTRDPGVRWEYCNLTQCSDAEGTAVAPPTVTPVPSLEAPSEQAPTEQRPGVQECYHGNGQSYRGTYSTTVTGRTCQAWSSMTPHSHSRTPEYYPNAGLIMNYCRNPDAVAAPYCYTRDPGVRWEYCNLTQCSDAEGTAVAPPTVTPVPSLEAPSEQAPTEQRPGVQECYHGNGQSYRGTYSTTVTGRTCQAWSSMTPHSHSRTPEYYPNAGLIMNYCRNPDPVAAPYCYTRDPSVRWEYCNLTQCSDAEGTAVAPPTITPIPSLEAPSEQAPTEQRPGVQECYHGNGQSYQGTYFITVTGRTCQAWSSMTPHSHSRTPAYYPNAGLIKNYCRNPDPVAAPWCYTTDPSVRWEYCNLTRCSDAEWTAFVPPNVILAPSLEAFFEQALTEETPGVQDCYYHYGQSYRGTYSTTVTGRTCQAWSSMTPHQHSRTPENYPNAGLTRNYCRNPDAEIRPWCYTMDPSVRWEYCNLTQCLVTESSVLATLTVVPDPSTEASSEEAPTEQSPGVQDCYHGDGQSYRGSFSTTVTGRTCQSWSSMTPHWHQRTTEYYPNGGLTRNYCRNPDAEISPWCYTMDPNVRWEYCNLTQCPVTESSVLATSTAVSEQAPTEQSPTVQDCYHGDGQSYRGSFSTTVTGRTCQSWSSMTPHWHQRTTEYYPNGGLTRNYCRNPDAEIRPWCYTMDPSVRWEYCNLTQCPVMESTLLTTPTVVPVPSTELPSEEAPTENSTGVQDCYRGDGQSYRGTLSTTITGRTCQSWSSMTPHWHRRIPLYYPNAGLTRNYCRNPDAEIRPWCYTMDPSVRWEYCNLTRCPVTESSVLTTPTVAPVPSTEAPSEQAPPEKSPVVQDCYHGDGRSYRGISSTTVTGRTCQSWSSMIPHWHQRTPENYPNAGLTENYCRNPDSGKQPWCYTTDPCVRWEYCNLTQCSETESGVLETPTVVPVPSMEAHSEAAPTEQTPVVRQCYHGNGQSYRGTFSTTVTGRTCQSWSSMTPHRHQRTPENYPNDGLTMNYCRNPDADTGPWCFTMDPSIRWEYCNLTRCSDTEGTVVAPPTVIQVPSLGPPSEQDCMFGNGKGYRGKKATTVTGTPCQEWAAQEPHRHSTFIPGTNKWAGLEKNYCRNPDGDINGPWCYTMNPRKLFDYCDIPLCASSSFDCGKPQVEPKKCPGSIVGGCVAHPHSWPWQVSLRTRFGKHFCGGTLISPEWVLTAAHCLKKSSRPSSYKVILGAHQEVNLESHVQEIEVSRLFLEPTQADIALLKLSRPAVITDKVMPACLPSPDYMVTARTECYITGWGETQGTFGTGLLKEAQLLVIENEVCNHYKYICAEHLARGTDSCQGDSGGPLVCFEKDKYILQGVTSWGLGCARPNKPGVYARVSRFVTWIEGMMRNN
Chain of human Apo(a) protein (P08519 20-2040 limits assumed): as above

IC50 [1]: 0.0963 ± 0.0233 nM
IC50 (human Apo(a) protein): < 0.314 nM
SMILES: O=C(O)[C@@H](Cc1cccc(CN(Cc2cccc(C[C@H](C(=O)O)[C@H]3CCNC3)c2)Cc2cccc(C[C@H](C(=O)O)[C@H]3CCNC3)c2)c1)[C@H]1CCNC1 [Example 1, (2S)-3-[3-[[Bis[[3-[(2S)-2-carboxy-2-[(3R)-pyrrolidin-3-yl]ethyl]phenyl]methyl]amino]methyl]phenyl]-2-[(3R)-pyrrolidin-3-yl]propanoic acid; tetrahydrochloride]
Lp(a) inhibition (% at 30 mpk) (plasma Lp(a)): 91 ± 0.73%
ED50 (plasma Lp(a)): 3.3 ± 0.53 mg/kg

IC50 [1]: 0.934 ± 0.306 nM
IC50 (human Apo(a) protein): 2.13 ± 0.159 nM
SMILES: O=C(O)[C@@H](Cc1cccc(CNCc2cccc(C[C@H](C(=O)O)[C@H]3CCNC3)c2)c1)[C@H]1CCNC1 [Example 3, (2S)-3-[3-[[[3-[(2S)-2-Carboxy-2-[(3R)-pyrrolidin-3-yl]ethyl]phenyl]methylamino]methyl]phenyl]-2-[(3R)-pyrrolidin-3-yl]propanoic acid; trihydrochloride]

IC50 [1]: 0.17 ± 0.0124 nM
SMILES: COc1cc(F)cc(CN(Cc2cccc(C[C@H](C(=O)O)[C@H]3CCNC3)c2)Cc2cccc(C[C@H](C(=O)O)[C@H]3CCNC3)c2)c1 [Example 5, (2S)-3-[3-[[[3-[(2S)-2-Carboxy-2-[(3R)-pyrrolidin-3-yl]ethyl]phenyl]methyl-[(3-fluoro-5-methoxy-phenyl)methyl]amino]methyl]phenyl]-2-[(3R)-pyrrolidin-3-yl]propanoic acid; trihydrochloride]
Lp(a) inhibition (%) (plasma Lp(a); 3 mg/kg oral twice a day, day 3 at 4 h post morning dose): 43.8 ± 4.24%

IC50 [1]: 0.108 ± 0.0149 nM
IC50 (human Apo(a) protein): < 0.314 nM
SMILES: CC(Cc1cccc(CN(Cc2cccc(CC(C)(C(=O)O)[C@H]3CCNC3)c2)Cc2cccc(CC(C)(C(=O)O)[C@H]3CCNC3)c2)c1)(C(=O)O)[C@H]1CCNC1 (stereo partly drawn) [Example 6, 3-[3-[[bis[[3-[2-carboxy-2-[(3R)-pyrrolidin-3-yl]propyl]phenyl]methyl]amino]methyl]phenyl]-2-methyl-2-[(3R)-pyrrolidin-3-yl]propanoic acid; tetrahydrochloride]

IC50 [1]: 0.372 ± 0.0464 nM
SMILES: O=C(O)[C@@H](Cc1cccc(Oc2cccc(C[C@H](C(=O)O)[C@H]3CCNC3)c2)c1)[C@H]1CCNC1 [Example 7, (2S)-3-[3-[3-[(2S)-2-carboxy-2-[(3R)-pyrrolidin-3-yl]ethyl]phenoxy]phenyl]-2-[(3R)-pyrrolidin-3-yl]propanoicacid; dihydrochloride]
Lp(a) inhibition (%) (plasma Lp(a); 30 mg/kg subcutaneous dosing twice a day, day 3 at 4 h post morning dose): 44.6 ± 5.0%

IC50 [1]: 0.288 ± 0.19 nM
SMILES: O=C(O)[C@@H](Cc1cccc(OCCOc2cccc(C[C@H](C(=O)O)[C@H]3CCNC3)c2)c1)[C@H]1CCNC1 [Example 8, (2S)-3-[3-[2-[3-[(2S)-2-carboxy-2-[(3R)-pyrrolidin-3-yl]ethyl]phenoxy]ethoxy]phenyl]-2-[(3R)-pyrrolidin-3-yl]propanoic acid; dihydrochloride]

IC50 [1]: 0.359 ± 0.0292 nM
SMILES: O=C(O)[C@@H](Cc1cccc(COc2cccc(C[C@H](C(=O)O)[C@H]3CCNC3)c2)c1)[C@H]1CCNC1 [Example 9, (2S)-3-[3-[[3-[(2S)-2-Carboxy-2-[(3R)-pyrrolidin-3-yl]ethyl]phenoxy]methyl]phenyl]-2-[(3R)-pyrrolidin-3-yl]propanoic acid; dihydrochloride]
Lp(a) inhibition (%) (plasma Lp(a); [2]): 56.5 ± 2.77%

IC50 [1]: 0.36 ± 0.119 nM
SMILES: O=C(O)[C@@H](Cc1cccc(Sc2cccc(C[C@H](C(=O)O)[C@H]3CCNC3)c2)c1)[C@H]1CCNC1 [Example 10, (2S)-3-[3-[3-[(2S)-2-Carboxy-2-[(3R)-pyrrolidin-3-yl]ethyl]phenyl]sulfanylphenyl]-2-[(3R)-pyrrolidin-3-yl]propanoic acid; dihydrochloride]
Lp(a) inhibition (%) (plasma Lp(a); [2]): 43.6 ± 4.6%

IC50 [1]: 0.396 ± 0.241 nM
SMILES: O=C(O)[C@@H](Cc1cccc([S+]([O-])c2cccc(C[C@H](C(=O)O)[C@H]3CCNC3)c2)c1)[C@H]1CCNC1 [Example 11, (2S)-3-[3-[3-[(2S)-2-Carboxy-2-[(3R)-pyrrolidin-3-yl]ethyl]phenyl]sulfinylphenyl]-2-[(3R)-pyrrolidin-3-yl]propanoic acid; dihydrochloride]

IC50 [1]: 0.235 ± 0.0509 nM
SMILES: O=C(O)[C@@H](Cc1cccc(S(=O)(=O)c2cccc(C[C@H](C(=O)O)[C@H]3CCNC3)c2)c1)[C@H]1CCNC1 [Example 12, (2S)-3-[3-[3-[(2S)-2-Carboxy-2-[(3R)-pyrrolidin-3-yl]ethyl]phenyl]sulfonylphenyl]-2-[(3R)-pyrrolidin-3-yl]propanoicacid; dihydrochloride]
Lp(a) inhibition (%) (plasma Lp(a); 30 mg/kg oral twice a day, day 3, samples taken at 8 h post oral dosing): 50 ± 3.82^3%

IC50 [1]: 2.39 ± 0.61 nM
SMILES: O=C(O)[C@@H](Cc1cccc(CNc2cccc(C[C@H](C(=O)O)[C@H]3CCNC3)c2)c1)[C@H]1CCNC1 [Example 13, (2S)-3-[3-[[3-[(2S)-2-Carboxy-2-[(3R)-pyrrolidin-3-yl]ethyl]anilino]methyl]phenyl]-2-[(3R)-pyrrolidin-3-yl]propanoicacid; trihydrochloride]

IC50 [1]: 0.348 ± 0.0984 nM
IC50 (human Apo(a) protein): < 0.314 nM
SMILES: O=C(O)[C@@H](Cc1cccc(Nc2cccc(C[C@H](C(=O)O)[C@H]3CCNC3)c2)c1)[C@H]1CCNC1 [Example 14, (2S)-3-[3-[3-[(2S)-2-Carboxy-2-[(3R)-pyrrolidin-3-yl]ethyl]anilino]phenyl]-2-[(3R)-pyrrolidin-3-yl]propanoic acid; dihydrochloride]
Lp(a) inhibition (% at 30 mpk) (plasma Lp(a)): 72 ± 2.23%
ED50 (plasma Lp(a)): 14.6 ± 2.48 mg/kg

IC50 [1]: 54.6 ± 9.15 nM
SMILES: CN1CC[C@H]([C@H](Cc2cccc(Nc3cccc(C[C@H](C(=O)O)[C@H]4CCN(C)C4)c3)c2)C(=O)O)C1 [Example 15, (2S)-3-[3-[3-[(2S)-2-carboxy-2-[(3R)-1-methylpyrrolidin-3-yl]ethyl]anilino]phenyl]-2-[(3R)-1-methylpyrrolidin-3-yl]propanoic acid; dihydrochloride]

IC50 [1]: 0.563 ± 0.119 nM
SMILES: O=C(O)[C@@H](Cc1cccc(NS(=O)(=O)Nc2cccc(C[C@H](C(=O)O)[C@H]3CCNC3)c2)c1)[C@H]1CCNC1 [Example 16, (2S,2′S)-3,3′-[Sulfonylbis(azanediyl-3,1-phenylene)]bis{2-[(3R)-pyrrolidin-3-yl]propanoic acid}; dihydrochloride]

SMILES: Cl.O=C(O)[C@@H](Cc1ccccc1)[C@H]1CCNC1 [Example 17, (2S)-3-Phenyl-2-[(3R)-pyrrolidin-3-yl]propanoic acid; hydrochloride]
Lp(a) inhibition (% at 30 mpk) (plasma Lp(a)): 60 ± 3.46%
ED50 (plasma Lp(a)): 20.6 ± 1.79 mg/kg

SMILES: Cl.O=C(O)[C@H](Cc1ccccc1)[C@@H]1CCNC1 [Example 18, (2R)-3-Phenyl-2-[(3S)-pyrrolidin-3-yl]propanoic acid; hydrochloride]
Lp(a) inhibition (% at 30 mpk) (plasma Lp(a)): 68 ± 1.82%
ED50 (plasma Lp(a)): 7.6 ± 2.43 mg/kg
